This note sets out measurements from ChEMBL document CHEMBL4828719, “H2dpa derivatives containing pentadentate ligands: An acyclic adjuvant potentiates meropenem activity in vitro and in vivo against metallo-β-lactamase-producing Enterobacterales” (Eur J Med Chem, 2021).

In brackets after ≈: the same amount, converted by molar mass. Activity calls are given as the source filed them. The calls are words filed in the database; no cut-off is given here.

The nature of assay [1]: Zinc chelation-dependent inhibition of IMP-1 (unknown origin) expressed in Escherichia coli DH5 alpha using imipenem as substrate preincubated with enzyme for 5 mins followed by substrate addition in the presence of zinc sulfate.
Assay [2] can be described thus: Zinc chelation-dependent inhibition of NDM-1 (unknown origin) expressed in Escherichia coli DH5 alpha using meropenem as substrate preincubated with enzyme for 5 mins followed by substrate addition in the presence of zinc sulfate.
Assay [3] in a line: Zinc chelation-dependent inhibition of VIM-2 (unknown origin) expressed in Escherichia coli DH5 alpha using nitrocefin as substrate preincubated with enzyme for 5 mins followed by substrate addition in presence of zinc sulfate.
Assay [4] can be described thus: Zinc chelation-dependent inhibition of NDM-1 (unknown origin) expressed in Escherichia coli BL21 (DE3) using meropenem as substrate preincubated with enzyme for 5 to 10 mins followed by substrate addition.
Assay [5] is described as follows: Zinc chelation-dependent inhibition of VIM-2 (unknown origin) expressed in Escherichia coli BL21 (DE3) using nitrocefin as substrate preincubated with enzyme for 5 to 10 mins followed by substrate addition.
The nature of assay [6]: Zinc chelation-dependent inhibition of IMP-4 (unknown origin) expressed in Escherichia coli BL21 (DE3) using imipenem as substrate preincubated with enzyme for 5 to 10 mins followed by substrate addition.
Assay [7] has as its system Escherichia coli. Put plainly: Synergistic antibacterial activity against IMP-4 producing Escherichia coli DH5alpha assessed as fractional inhibitory concentration index incubated for 16 to 20 hrs in presence of meropenem by checkerboard assay. It is filed as functional, DH5[alpha]. Conditions: time 16-20 hrs.
Assay [8] has as its system Escherichia coli. As to the kind of experiment: Synergistic antibacterial activity against NDM-1 producing Escherichia coli DH5alpha assessed as fractional inhibitory concentration index incubated for 16 to 20 hrs in presence of meropenem by checkerboard assay. Format: functional, DH5[alpha]. Conditions: time 16-20 hrs.
The test system of assay [9] is Escherichia coli. Put plainly: Antibiotic adjuvant activity against IMP-4 producing Escherichia coli DH5alpha assessed as potentiation of meropenem-induced antibacterial activity incubated for 16 to 20 hrs by agar disc diffusion assay. It is filed as functional, organism-based. Conditions: DH5[alpha], time 16-20 hrs.
Assay [10] relates to Escherichia coli. As to the kind of experiment: Antibacterial activity against IMP-4 producing Escherichia coli DH5alpha assessed as decrease in bacterial growth incubated for 16 to 20 hrs by CLSI based microdilution method. It is filed as functional. Conditions: DH5[alpha], time 16-20 hrs.
Assay [11] has as its system Escherichia coli. As to the kind of experiment: Antibacterial activity against NDM-1 producing Escherichia coli DH5alpha assessed as decrease in bacterial growth incubated for 16 to 20 hrs by CLSI based microdilution method. It is filed as functional. Conditions: DH5[alpha], time 16-20 hrs. On the technique in general: Broth dilution looks for growth in wells or tubes with falling amounts of substance.

For assay [12], the system named is Escherichia coli. Put plainly: Antibiotic adjuvant activity against NDM-1 producing Escherichia coli DH5alpha assessed as potentiation of meropenem-induced antibacterial activity incubated for 16 to 20 hrs by agar disc diffusion assay. Format: functional, organism-based. Conditions: DH5[alpha], time 16-20 hrs. On the technique in general: A growth-free zone around the sample is the usual read-out of agar diffusion tests.

Assay [13] has as its system Escherichia coli. As to the kind of experiment: Antibiotic adjuvant activity against VIM-1 producing Escherichia coli DH5alpha assessed as potentiation of meropenem-induced antibacterial activity incubated for 16 to 20 hrs by agar disc diffusion assay. It is filed as functional, organism-based. The settings on record: DH5[alpha], time 16-20 hrs.
In assay [14] the test system is Escherichia coli. Put plainly: Synergistic antibacterial activity against VIM-1 producing Escherichia coli DH5alpha assessed as fractional inhibitory concentration index incubated for 16 to 20 hrs in presence of meropenem by checkerboard assay. Format: functional, DH5[alpha]. Conditions: time 16-20 hrs.
Assay [15] has as its system Escherichia coli. As to the kind of experiment: Antibacterial activity against VIM-1 producing Escherichia coli DH5alpha assessed as decrease in bacterial growth incubated for 16 to 20 hrs by CLSI based microdilution method. Format: functional. Conditions: DH5[alpha], time 16-20 hrs.

Take `C[C@H](CS)C(=O)N1CCC[C@H]1C(=O)O` [CAPTOPRIL]: the outcome in assay [1], in [2] and in [3] was Active.

As to `N[C@@H](CN[C@@H](CN[C@@H](CC(=O)O)C(=O)O)C(=O)O)C(=O)O`, the results for the half-inhibitory concentration (IC50) in [4], in [5] and in [6] were 4 µM, above 200 µM and 9.6 µM, respectively.

On to `O=C(O)CN(Cc1cccc(C(=O)O)n1)Cc1cccc(C(=O)O)n1`, for which the “fractional inhibitory concentration index (FICI)” value with Escherichia coli [7] came out at 0.14; in the assay with Escherichia coli [8], 0.07; in the assay with Escherichia coli [14], 0.07. In addition, the half-inhibitory concentration (IC50) – broadly, the midpoint of a concentration-inhibition curve – stood at 1.67 µM in assay [4], 1.53 µM in assay [5] and 3.88 µM in assay [6]. Besides, the outcome in the assay on Escherichia coli [9], with Escherichia coli [12] and in the assay on Escherichia coli [13] was Active. Also, the minimal inhibitory concentration (MIC) with Escherichia coli [10], with Escherichia coli [11] and in the assay on Escherichia coli [15] was 128 µg/mL (≈ 371 µM) throughout.

Consider `O=C(O)c1cccc(CNCc2cccc(C(=O)O)n2)n1`, for which the “fractional inhibitory concentration index (FICI)” value with Escherichia coli [7] stood at 0.14; in the assay on Escherichia coli [8], 0.07; with Escherichia coli [14], 0.07. Besides, the values for the IC50 in assay [4], in assay [5] and in assay [6] were 1.54 µM, 1.05 µM and 1.04 µM, respectively. For the same molecule, the result in the assay with Escherichia coli [9], with Escherichia coli [12] and with Escherichia coli [13] was Active. Moreover, the MIC with Escherichia coli [10], in the assay on Escherichia coli [11] and in the assay with Escherichia coli [15] was 128 µg/mL (≈ 446 µM) throughout.

For `O=C(O)c1cccc(CN(CCP(=O)(O)O)Cc2cccc(C(=O)O)n2)n1`, the “fractional inhibitory concentration index (FICI)” value in the assay on Escherichia coli [7] is listed as 0.14; with Escherichia coli [8] it was 0.07; in the assay with Escherichia coli [14], 0.07. Besides, the IC50 in assay [4] was found to be 1.65 µM; in assay [5] it was 2.03 µM; in [6] it was 4.84 µM. Also, the outcome in the assay with Escherichia coli [9], in the assay on Escherichia coli [12] and with Escherichia coli [13] was Active. Besides, the MIC with Escherichia coli [10], in the assay with Escherichia coli [11] and in the assay with Escherichia coli [15] was 128 µg/mL (≈ 324 µM) throughout.

As to `O=C(O)CN(CCN(CC(=O)O)CC(=O)O)CC(=O)O` [EDETIC ACID], the outcome in assay [1], in [2] and in [3] was inactive. In addition, the IC50 is 1.75 µM in assay [4], above 200 µM in [5] and 12.5 µM in assay [6].
